Reference: patent US20240261474A1, “BIODEGRADABLE TISSUE SCAFFOLD WITH SECONDARY MATRIX TO HOST WEAKLY ADHERENT CELLS” (THE U.S.A., as represented by the Secretary, Department of …, priority 2021, published 2024)
“Also recorded” adds a separate entry of the source.

Columns and labels:
Format in all cases: cell-based, human
iPSC-RPE [1] = assay: Hematoxylin and eosin staining, gross morphology of the monolayer; conditions: H&E, AGN 193109 0.2 μM, endo-IWR-1 4 uM
Description: Brightfield imaging was used to determine RPE pigmentation defects, while hematoxylin and eosin (H&E) staining was valuable to inspect gross morphologic alterations of the monolayer. A section of transwell membrane was cut and mounted on a glass slide for brightfield imaging. Pigmentation levels were preserved after ENDO-1-IWR and AGN 193109 treatments as compared to DMSO-treated iPSC-RPE.
(§1) AGN 193109 was used at 0.2 μM and endo-IWR-1 at 4 uM. Both drugs were dissolved in DMSO, so that the final concentration of DMSO was not more than 0.1%. The final concentration of DMSO control was 0.1%. The compounds were added in RPE maturation medium until cells were mature. Gross cell morphology was also analyzed (FIGS. 20B, 20D, and 20F, left image) to detect possible abnormalities. Fine intracellular structures were examined for alterations with transmission electron microscopy (TEM, FIGS. 20B, 20D, and 20F, right image).

iPSC-RPE [2] = assay: Phenotypic characterization of selected drug treatments (TER, brightfield, H&E, TEM, SEM); conditions: for induced RPE phenotype: cell size and apical processes; for effect on iPSC-RPE health: verified by TER, brightfield, H&E and TEM
Text: Eleven compounds were selected for further phenotypic characterization based on their initial effect in RPE cell size. […] Because the macula is dominated by cones while the periphery is dominated by rods, RPE cells in these two different regions might be enriched in one of the two apical process structures. It was hypothesized that the phenotype of RPE apical processes will serve as an additional discriminatory factor, other than RPE morphometry.
(§2) Different techniques were used to study RPE morphologic features.
Starting at D21, iPSC-RPE were treated with the different compounds. At D40 immature RPE were enriched by negative selection, as per differentiation protocol, and seeded on transwells for maturation. iPSC-RPE were treated with the compounds for other 6 weeks until cells were fully mature (FIG. 1 and FIG. 11).

iPSC-RPE [3] = assay: Single-cell RNA sequencing; conditions: AGN 193109-, endo-IWR-1- and DMSO-treated cells
Description: Single-cell RNA sequencing was performed to confirm that the compounds changed cell transcriptome.

iPSC-RPE [4] = assay: Transmission electron microscopy, fine intracellular structures; conditions: TEM, AGN 193109 0.2 μM, endo-IWR-1 4 uM
Description: (§3) Finally, transmission electron microscopy (TEM) was used to detect fine morphological alterations, whereas scanning electron microscopy (SEM) was essential to study modifications in apical processes structures. […] In DMSO-treated iPSC-RPE we found both types of apical processes, petal and finger-like.
as §1

iPSC-RPE [5] = assay: High-content compound screening on iPSC-RPE, cell area quantified with REShAPE; conditions: 384-well plates, 30 days in RPE maturation medium
Description: Screening of Compound Library and Imaging: 115 drugs targeting various developmental pathways or cytoskeletal stressors were selected to form a new developmental library of compounds. The drugs are either activators or inhibitors of various signaling pathways and target proteins at different levels of the signaling cascades. For each drug, an initial concentration was selected, and adjustments made to the concentration of each drug. The assays were performed on iPSC-derived committed RPE. For every drug, the concentration was lowered if toxicity was detected or increased if there was no evident effect on cell morphology in comparison to control. The list of compounds tested can be found in Table 1. The high-content screening was performed in 384-well plates (cat #6057300, Perkin Elmer) using a range of 3 different concentrations (3×, 1×, 0.3×). […]
Morphometric Analysis Using REShAPE: The binary segmentation produced by the CNN algorithm was transferred to REShAPE for cell shape analysis. […] For every cell in a field of view that has been successfully segmented, REShAPE provide quantification of more than 25 different shape metrics. […] In addition, the software created images of segmented cells for every metric analyzed, where every cell is color-coded according to the raw values (FIG. 4). The color-coded images display the location of the cells analyzed. […]

iPSC-RPE [6] = assay: Scanning electron microscopy of apical processes; conditions: SEM; for apical processes average transversal length / apical processes average transversal width: transversal section; for type of apical processes: DMSO control shows both petal and finger-like
Description: FIG. 11. Defining petal (undulated) and finger-like apical processes. The transversal section of apical processes was measured to precisely define their shape. Petal-like apical processes, obtained by treating RPE cells with AGN 193109, have an average transversal length of 1.68 μm (length min 0.5, max 4 μm) and width of 0.20 μm (width min 0.1, max 1 μm). The petal-like apical processes are also wavy along their length. The width of the undulation ranges from 0.2 to 2 μm. Finger-like apical processes, obtained by treating RPE cells with endo-IWR-1, are cylindrical and have the same average transversal length and width of 0.23 μm (min 0.1, max 1 microns). An example of how measurements of the apical processes was done is shown for each type of apical processed.
as §2, §3

| Structure (SMILES) | gross cell morphology (iPSC-RPE [1]) | induced RPE phenotype (iPSC-RPE [2]) | effect on iPSC-RPE health (iPSC-RPE [2]) | single cell transcriptome clustering (iPSC-RPE [3]) | fine intracellular structures (iPSC-RPE [4]) | effect on iPSC-RPE cell area / cell size distribution in the screening (iPSC-RPE [5]) | apical processes average transversal length (iPSC-RPE [6]) [μm] | apical processes average transversal width (iPSC-RPE [6]) [μm] | type of apical processes (iPSC-RPE [6]) | gross cell morphology (iPSC-RPE [1]; listed as endo-IWR-1) | fine intracellular structures (iPSC-RPE [4]; listed as endo-IWR-1) | type of apical processes (iPSC-RPE [6]; listed as Endo-IWR-1) |
| --- | --- | --- | --- | --- | --- | --- | --- | --- | --- | --- | --- | --- |
| Cc1ccc(C2=CCC(C)(C)c3ccc(C#Cc4ccc(C(=O)O)cc4)cc32)cc1 [AGN 193109, 4-[2-[5,6-Dihydro-5,5-dimethyl-8-(4-methylphenyl)-2-naphthalenyl]ethynyl]-benzoic acid] | no gross morphological alterations were detected; also recorded: nor did they affect gross or fine cell morphology | induces a macular RPE phenotype | not disruptive of iPSC-RPE health; also recorded: did not affect the healthy RPE phenotype | cluster separately from each other | no fine intracellular structure defects were identified; also recorded: nor did they affect gross or fine cell morphology | reproduces macular and peripheral cell sizes in vitro, respectively | 1.68 | 0.20 | enriched RPE cells with petal-like apical processes (with undulation); also recorded: enrich RPE cells with petal-like and finger-like apical processes, respectively |  |  |  |
| O=C(Nc1cccc2cccnc12)c1ccc(N2C(=O)C3C4C=CC(C4)C3C2=O)cc1 (stereo not drawn) [ENDO-1-IWR, 4-(1,3,3a,4,7,7a-Hexahydro-1,3-dioxo-4,7-methano-2H-isoindol-2-yl)-N-8-quinolinyl-Benzamide] | no gross morphological alterations were detected | induces a peripheral RPE phenotype | not disruptive of iPSC-RPE health; also recorded: did not affect the healthy RPE phenotype | cluster separately from each other | no fine intracellular structure defects were identified | reproduces macular and peripheral cell sizes in vitro, respectively | 0.23 | 0.23 | enriched uniquely by finger-like apical processes; also recorded: enrich RPE cells with petal-like and finger-like apical processes, respectively; also recorded: enriches these cells with finger-like apical processes | nor did they affect gross or fine cell morphology | nor did they affect gross or fine cell morphology | enriched cells with finger-like apical processes |
